Measurements reported in PubChem BioAssay AID2060495 (Molecular Pharmacology Branch, DTP, NCI, 2025).

Tested on: 521955-158-R2-J5-PDC complex spheroid viability
Experiment: Anticancer human tumor 521955-158-R2-J5-PDC patient-derived pancreatic carcinoma cell line growth inhibition [GQUAD]
Conditions: for IC50: curve of first compound; for viability, T/C: stronger effect = lower value
Description: DNA G-quadruplex Stabilizer Agents in Combinations in Complex Spheroids
A high-throughput screen of multi-cell type tumor spheroids was designed to identify active combinations of DNA G-quadruplex stabilizer agents and targeted small molecules. Complex spheroids include a stromal component modeled by human endothelial cells (HUVEC) and fibroblasts modeled by human mesenchymal stem cells (MSCs). The concentration ranges selected for each drug and investigational agent were based upon clinically achievable concentrations if the clinical Cmax of the agent was known.
Compounds. The drugs and investigational agents: pidnarulex (CX-5461; NSC782164), APTO-253 (NSC789042), BRACO-19 (NSC847499), peposertib (NSC802822), ceralasertib (NSC780249), elimusertib (NSC800525), camonsertib (NSC841442), AZD-1390 (NSC803789), olaparib (NSC753686), talazoparib (NSC767125), ART-558 (NSC835418), sotorasib (NSC818433), MRTX-1133 (NSC836407), SN-38 (NSC673596), topotecan (NSC609699), etoposide (NSC141540), doxorubicin (NSC123127), gemcitabine (NSC613327), 5-fluorouracil (NSC19893), paclitaxel (NSC125973), vemurafenib (NSC761431), panobinostat (NSC761190), R-306465 (JNJ-16241199; NSC773264), adavosertib (NSC754352), TP-3654 (NSC805149), carboplatin (NSC241240), KSQ-4279 (NSC840948), and staurosporine (NSC755774) were obtained from the National Cancer Institute (NCI) Developmental Therapeutics Program Chemical Repository (34). The FDA-approved anticancer drug set is available from the NCI Developmental Therapeutics Program. […] The stock solutions were prepared in dimethyl sulfoxide (DMSO, Sigma-Aldrich, St. Louis, MO, cat. D2650) at 800-fold the tested concentration and stored at -70 degrees C prior to their use. All drugs and investigational agents were tested over a range starting from a high concentration at or near the clinical Cmax and decreasing in half-log increments. If the clinical Cmax for an agent had not been determined, the highest concentration tested was 10 microM.
2.3 Cell Culture. All cells were maintained in an incubator at 37 degrees C and 5% CO2 with 95% humidity. The PDC lines were cultured according to standard operating procedures established by the NCI PDMR. All PDCs were thawed and cultured in Matrigel-coated flasks prepared with a working solution of 1X Ham's F-12 nutrient mix, without supplementation (Invitrogen, cat. 11765054), 100 U/mL penicillin-streptomycin (Invitrogen, cat. 15140122), and 2.5% Matrigel (Corning Inc., cat. 354248) for the first three passages. The 857933-349-R-J2-PDC line was cultured in 6C/Colon 1B media, which includes advanced DMEM/F-12 (Thermo Fisher Scientific, cat. 12634028), 10 mM HEPES (Thermo Fisher Scientific, cat. 15630080), 1X GlutaMAX supplement (Thermo Fisher Scientific, cat. 35050061), 0.1 mg/mL primocin (InvivoGen, cat. ant-pm-2), 10% defined fetal bovine serum, heat inactivated (HyClone Laboratories Inc., cat. SH30070.03HI), 50% L-WRN conditioned media (ATCC, cat. CRL-3276), 1.25 mM N-Acetyl-L-cysteine (Sigma-Aldrich, cat. A9165), 10 mM nicotinamide (Sigma-Aldrich, cat. N0636), 1X B-27 supplement (Thermo Fisher Scientific, cat. 17504044), 1X N-2 supplement (Thermo Fisher Scientific, cat. 17502048), 10 microM Y-27632 dihydrochloride (Tocris Bioscience, cat. 1254), and 50 ng/mL human EGF recombinant protein (Thermo Fisher Scientific, cat. PHG0311). The 485176-168-R4-J1-PDC line was cultured in Panc media, which includes all 6C/Colon 1B media components plus 100 ng/mL human FGF-10 (Thermo Fisher Scientific, cat. 100-26), 500 nM SB-431542 (Selleckchem, cat. S1067), and gastrin (Tocris, cat. 3006).
[…]

[1] = second compound 0.0316 µM, first compound 0.0316 µM
[2] = second compound 0.0316 µM, first compound 0.1 µM
[3] = second compound 0.0316 µM, first compound 0.316 µM
[4] = second compound 0.0316 µM, first compound 1 µM
[5] = second compound 0.0316 µM, first compound 3.16 µM
[6] = second compound 0.0316 µM, first compound 10 µM
[7] = second compound 0.1 µM, first compound 0.0316 µM
[8] = second compound 0.1 µM, first compound 0.1 µM
[9] = second compound 0.1 µM, first compound 0.316 µM
[10] = second compound 0.1 µM, first compound 1 µM
[11] = second compound 0.1 µM, first compound 3.16 µM
[12] = second compound 0.1 µM, first compound 10 µM
[13] = second compound 0.316 µM, first compound 0.0316 µM
[14] = second compound 0.316 µM, first compound 0.1 µM
[15] = second compound 0.316 µM, first compound 0.316 µM
[16] = second compound 0.316 µM, first compound 1 µM
[17] = second compound 0.316 µM, first compound 3.16 µM
[18] = second compound 0.316 µM, first compound 10 µM
[19] = second compound 1 µM, first compound 0.0316 µM
[20] = second compound 1 µM, first compound 0.1 µM
[21] = second compound 1 µM, first compound 0.316 µM
[22] = second compound 1 µM, first compound 1 µM
[23] = second compound 1 µM, first compound 3.16 µM
[24] = second compound 1 µM, first compound 10 µM
[25] = second compound 3.16 µM, first compound 0.0316 µM
[26] = second compound 3.16 µM, first compound 0.1 µM
[27] = second compound 3.16 µM, first compound 0.316 µM
[28] = second compound 3.16 µM, first compound 1 µM
[29] = second compound 3.16 µM, first compound 3.16 µM
[30] = second compound 3.16 µM, first compound 10 µM
[31] = second compound 10 µM, first compound 0.0316 µM
[32] = second compound 10 µM, first compound 0.1 µM
[33] = second compound 10 µM, first compound 0.316 µM
[34] = second compound 10 µM, first compound 1 µM
[35] = second compound 10 µM, first compound 3.16 µM
[36] = second compound 10 µM, first compound 10 µM
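Further: spheroids exposed to agents for one week before reading.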
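Wherever viability, T/C is given: 100% = DMSO vehicle control viability.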

CC1COCCN1c1cc(C2(S(C)(=N)=O)CC2)nc(-c2ccnc3[nH]ccc23)n1 (stereo unspecified) + CN(C)c1ccc(Nc2c3ccc(NC(=O)CCN4CCCC4)cc3nc3cc(NC(=O)CCN4CCCC4)ccc23)cc1
IC50 (second compound 0.0316 µM): 879 nM
IC50 (second compound 0.1 µM): 832 nM
IC50 (second compound 0.316 µM): 1020 nM
IC50 (second compound 1 µM): 850 nM
IC50 (second compound 3.16 µM): 1330 nM
IC50 (second compound 10 µM): 1380 nM
viability, T/C [1]: 99.7%
viability, T/C [2]: 93.1%
viability, T/C [3]: 98%
viability, T/C [4]: 44.1%
viability, T/C [5]: 16.2%
viability, T/C [6]: 17.2%
viability, T/C [7]: 104%
viability, T/C [8]: 112%
viability, T/C [9]: 117%
viability, T/C [10]: 38.4%
viability, T/C [11]: 17.5%
viability, T/C [12]: 16.8%
viability, T/C [13]: 97.1%
viability, T/C [14]: 99.2%
viability, T/C [15]: 99%
viability, T/C [16]: 50.6%
viability, T/C [17]: 12.9%
viability, T/C [18]: 13.7%
viability, T/C [19]: 99.3%
viability, T/C [20]: 93.8%
viability, T/C [21]: 91.5%
viability, T/C [22]: 43.3%
viability, T/C [23]: 14.8%
viability, T/C [24]: 14.5%
viability, T/C [25]: 86.4%
viability, T/C [26]: 78.4%
viability, T/C [27]: 89.2%
viability, T/C [28]: 61.5%
viability, T/C [29]: 15.8%
viability, T/C [30]: 14.8%
viability, T/C [31]: 61%
viability, T/C [32]: 76.7%
viability, T/C [33]: 69.1%
viability, T/C [34]: 58.9%
viability, T/C [35]: 26.9%
viability, T/C [36]: 20.5%

COc1ccc([C@@H](O)c2cc(-c3ncnc4cc(N5CCOCC5)ccc34)c(F)cc2Cl)nn1 + CN(C)c1ccc(Nc2c3ccc(NC(=O)CCN4CCCC4)cc3nc3cc(NC(=O)CCN4CCCC4)ccc23)cc1
IC50 (second compound 0.0316 µM): 7260 nM
IC50 (second compound 0.1 µM): 5610 nM
IC50 (second compound 0.316 µM): 6450 nM
IC50 (second compound 1 µM): 5520 nM
IC50 (second compound 3.16 µM): 2500 nM
IC50 (second compound 10 µM): 2000 nM
viability, T/C [1]: 91.8%
viability, T/C [2]: 107%
viability, T/C [3]: 91.8%
viability, T/C [4]: 78.9%
viability, T/C [5]: 68.3%
viability, T/C [6]: 43.3%
viability, T/C [7]: 94.2%
viability, T/C [8]: 96.8%
viability, T/C [9]: 92.3%
viability, T/C [10]: 83.9%
viability, T/C [11]: 60%
viability, T/C [12]: 39.9%
viability, T/C [13]: 88.9%
viability, T/C [14]: 105%
viability, T/C [15]: 106%
viability, T/C [16]: 77.8%
viability, T/C [17]: 66.5%
viability, T/C [18]: 41%
viability, T/C [19]: 87.4%
viability, T/C [20]: 101%
viability, T/C [21]: 83%
viability, T/C [22]: 72.4%
viability, T/C [23]: 59.2%
viability, T/C [24]: 41.5%
viability, T/C [25]: 66.4%
viability, T/C [26]: 83.1%
viability, T/C [27]: 74.9%
viability, T/C [28]: 73.7%
viability, T/C [29]: 44%
viability, T/C [30]: 28.8%
viability, T/C [31]: 59.8%
viability, T/C [32]: 55.6%
viability, T/C [33]: 71.3%
viability, T/C [34]: 54.9%
viability, T/C [35]: 45.1%
viability, T/C [36]: 16.7%

O=C(c1cc(Cc2n[nH]c(=O)c3ccccc23)ccc1F)N1CCN(C(=O)C2CC2)CC1 + CN(C)c1ccc(Nc2c3ccc(NC(=O)CCN4CCCC4)cc3nc3cc(NC(=O)CCN4CCCC4)ccc23)cc1
IC50 (second compound 0.0316 µM): > 10000 nM
IC50 (second compound 0.1 µM): > 10000 nM
IC50 (second compound 0.316 µM): > 10000 nM
IC50 (second compound 1 µM): > 10000 nM
IC50 (second compound 3.16 µM): > 10000 nM
IC50 (second compound 10 µM): > 10000 nM
viability, T/C [1]: 93.1%
viability, T/C [2]: 85.2%
viability, T/C [3]: 94%
viability, T/C [4]: 83.5%
viability, T/C [5]: 97.1%
viability, T/C [6]: 85.5%
viability, T/C [7]: 94.4%
viability, T/C [8]: 89.4%
viability, T/C [9]: 97.5%
viability, T/C [10]: 86.6%
viability, T/C [11]: 88.3%
viability, T/C [12]: 71.9%
viability, T/C [13]: 93%
viability, T/C [14]: 90.9%
viability, T/C [15]: 91%
viability, T/C [16]: 85.4%
viability, T/C [17]: 92.6%
viability, T/C [18]: 84.1%
viability, T/C [19]: 90%
viability, T/C [20]: 82.7%
viability, T/C [21]: 92.3%
viability, T/C [22]: 84.5%
viability, T/C [23]: 102%
viability, T/C [24]: 72.8%
viability, T/C [25]: 75.4%
viability, T/C [26]: 90.5%
viability, T/C [27]: 67.1%
viability, T/C [28]: 77.4%
viability, T/C [29]: 80%
viability, T/C [30]: 71.5%
viability, T/C [31]: 57%
viability, T/C [32]: 64.5%
viability, T/C [33]: 68.7%
viability, T/C [34]: 56.5%
viability, T/C [35]: 48.7%
viability, T/C [36]: 63%
